Data taken from patent publication US20030055065A1, “Tricyclic amide and urea compounds useful for inhibition of G-protein function and for treatment of proliferative diseases” (priority 1993, published 2003).
Where “and” joins values, the source holds several entries; their conditions need not be identical. Equal values may be shown once. Read-outs that look alike come from different tables or passages of the source.

Experiments:
[1] = test system: Ras-CVLS processing in COS monkey kidney cells; experiment: COS cell assay: Ras-CVLS processing (Western blot); assay type: cell-based; details: COS cells; for IC50: read-out: Inhibition of Ras Processing IC50
Method: 2. […] Effect of farnesyl protein transferase inhibitors on Ras processing and on disordered cell growth induced by transforming Ras. COS monkey kidney cells were transfected by electroporation with the plasmid pSV-SPORT (Gibco/BRL) containing a cDNA insert encoding either Ras-CVLS or Ras-CVLL, leading to transient overexpression of a Ras substrate for either farnesyl protein transferase or geranylgeranyl protein transferase I, respectively (see above). […] After 24 hours, media was removed and fresh media containing the appropriate drugs was re-added. 48 hours after electroporation cells were examined under the microscope to monitor disordered cell growth induced by transforming Ras. Cells expressing transforming Ras become more rounded and refractile and overgrow the monolayer, reminiscent of the transformed phenotype. […] Cells were lysed by homogenization and cell debris was removed by centrifugation at 2000×g for 10 min. Cellular protein was precipitated by addition of ice-cold trichloroacetic acid and redissolved in 100 μl of SDS-electrophoresis sample buffer. […] Proteins resolved on the gels were electroblotted onto nitrocellulose membranes for immunodetection. […] E., et al., (1982), Monoclonal antibodies to the p21 products of the transforming gene of Harvey murine sarcome virus and of the cellular ras gene family, J. Virol. 43: 294-304), in PBS containing 1% fetal calf serum for one hour at room temperature. After washing, membranes were incubated for one hour at room temperature with a 1:5000 dilution of secondary antibody, rabbit anti-rat IgG conjugated to horseradish peroxidase, in PBS containing 1% fetal calf serum.

[2] = test system: T24-BAG4 human bladder carcinoma cells expressing an activated H-ras gene; experiment: Cell Mat Assay: tumor cell colony inhibition (tIC50); assay type: cell-based; details: inhibition of tumor cell growth
In short: (§1)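 Serial compound dilutions added 24 h after planting T24-BAG4 cells onto a mat of normal cells, then 14 d colony growth; monolayers glutaraldehyde-fixed and tumor cells X-Gal stained. tIC50 and mIC50 from microscope counts of colonies, cells per colony and mat cell density.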

[3] = test system: Normal human HEPM fibroblasts; experiment: Cell Mat Assay: density of mat cells (mIC50); assay type: cell-based
In short: as §1

[4] = target: T1, farnesyl protein transferase (FPT), partially purified from rat brain (Rattus norvegicus, UniProt Q02293+Q04631); experiment: Inhibition of farnesyl protein transferase (transfer of [3H]farnesyl to Ras-CVLS); assay type: biochemical
T1 construct: were partially purified from rat brain by ammonium sulfate fractionation followed by Q-Sepharose
T1 sequence (Q02293 whole entry, one chain of several): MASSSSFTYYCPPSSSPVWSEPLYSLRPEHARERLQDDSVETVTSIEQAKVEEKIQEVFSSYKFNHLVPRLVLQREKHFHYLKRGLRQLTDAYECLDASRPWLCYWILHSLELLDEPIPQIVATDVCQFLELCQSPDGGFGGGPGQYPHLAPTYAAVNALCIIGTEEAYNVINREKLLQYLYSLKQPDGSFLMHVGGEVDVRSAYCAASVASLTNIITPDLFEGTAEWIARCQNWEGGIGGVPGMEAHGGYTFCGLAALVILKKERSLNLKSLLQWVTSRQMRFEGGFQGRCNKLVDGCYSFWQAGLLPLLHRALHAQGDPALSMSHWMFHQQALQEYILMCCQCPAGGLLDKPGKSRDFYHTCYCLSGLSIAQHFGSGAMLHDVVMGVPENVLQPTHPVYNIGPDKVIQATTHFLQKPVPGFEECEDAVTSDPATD
In short: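 Partially purified farnesyl protein transferase with His6-tagged val12-Ha-Ras-CVLS substrate and [3H]farnesyl pyrophosphate, 30 min at room temperature. Stopped with SDS/TCA, precipitated Ras collected on GF/C filters; percent inhibition relative to DMSO vehicle control.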

[5] = Ras-CVLS farnesylation, partially purified rat brain FPT, read-out: FPT IC50
[6] = enzyme inhibition, read-out: FPT IC50

| SMILES | IC50 ([1]; Primates, COS) [µM] | IC50 ([2]; Homo sapiens) [µM] | IC50 ([3]; Homo sapiens, Fibroblast) [µM] | IC50 [4, 5] | other results |
| --- | --- | --- | --- | --- | --- |
| O=C(Cc1ccncc1)N1CCC(=C2c3ccc(Br)cc3CCc3cccnc32)CC1 [181 (5.48)] | 1.1 | < 3.1 | > 50 |  |  |
| O=C(Nc1cccnc1)N1CCN(C2c3ccc(Cl)cc3CCc3cccnc32)CC1 (stereo not drawn) [187 (6.7)] | 4.8 | 37 | > 50 | 1.34 µM | IC50 [2]: 25 µM |
| O=C(Nc1cccnc1)N1CCN([C@H]2c3ccc(Cl)cc3CCc3cccnc32)CC1 [224 (6.11)] | 7.3 | 37 | > 50 | 0.46 µM |  |
| CC(=O)N1CCC(CC(=O)N2CCN([C@H]3c4ccc(Cl)cc4CCc4cccnc43)CC2)CC1 [225 (5.99)] | 6.2 | 12.5 | > 50 | 1.6 µM |  |
| CC(=O)N1CCC(C(=O)N2CCN([C@H]3c4ccc(Cl)cc4CCc4cccnc43)CC2)CC1 [226 (5.101)] | 6.5 | 12.5 | > 50 | 1.8 µM |  |
| O=C(Cc1ccncc1)N1CCC(=C2c3ccc(Cl)cc3CCc3ccc[n+]([O-])c32)CC1 [230 (5.105)] |  |  |  |  | IC50 [1]: > 20 µM; IC50 [2]: 37 µM; IC50 [3]: > 50 µM |
| O=C(Cc1ccncc1)N1CCC(=C2c3ccc(Cl)cc3CCc3c(Cl)ccnc32)CC1 [248 (5.123)] |  |  |  | 0.19 µM | IC50 [1]: 4.6 µM; IC50 [2]: 18 µM; IC50 [3]: > 50 µM |
| O=C(Cc1ccncc1)N1CCC(=C2c3ccc(Cl)cc3CCc3ccc(Cl)nc32)CC1 [248 (5.124)] | 2.05 | 18 | > 50 | 1.2 µM |  |
| O=C(N[C@@H](Cc1ccc(O)cc1)C(=O)N1CCC(=C2c3ccc(Cl)cc3CCc3cccnc32)CC1)OCc1ccccc1 [Example 46] |  |  |  | 1.2 µM | IC50 [1]: > 8 µM; IC50 [3]: > 50 µM |
| CC(C)(C)C(=O)N1CCC(=C2c3ccc(Cl)cc3CCc3cccnc32)CC1 [Example 53] |  |  |  | 1.5 µM | IC50 [1]: > 13 µM; IC50 [2]: 25 µM; IC50 [3]: > 50 µM |
| O=C(Cc1ccncc1)N1CCC(C2c3ccc(Cl)cc3CCc3cccnc32)CC1 (stereo not drawn) [Example 82, 4-(8-chloro-6,11-dihydro-5H-benzo-[5,6]cyclohepta[1,2-b]pyridin-11-yl)-1-[(4-pyridinyl)acetyl]-piperidine] | 1.2 | 3.1 | 40 | 0.16 µM and 0.36 µM |  |
| O=C(Cc1ccncc1)N1CCC(=C2c3ccccc3CCc3ccccc32)CC1 [Example 87] | 12.7 | 50 | > 50 | 1.14 µM |  |
| CC(=O)N1CCC(C(=O)N2CCC(=C3c4ccc(Cl)cc4CCc4cccnc43)CC2)CC1 [Example 89] | 6.3 | 6.3 | > 25 | 1.8 µM |  |
| CC(C)(C(=O)N1CCN(C2c3ccc(Cl)cc3CCc3cccnc32)CC1)c1cccnc1 (stereo not drawn) [Example 198] | 6.1 | 12.5 | > 50 |  |  |
| CN1CCC(CC(=O)N2CCN(C3c4ccc(Cl)cc4CCc4cccnc43)CC2)CC1 (stereo not drawn) [Example 201] | 0.93 | 3.1 | 12.5 | 1.4 µM |  |
| CN1CCCC(CC(=O)N2CCN(C3c4ccc(Cl)cc4CCc4cccnc43)CC2)C1 (stereo not drawn) [Example 206] | 2.4 | < 3.1 | 16 | 1.19 µM |  |

| SMILES | IC50 ([1]; Primates, COS) [µM] | IC50 ([2]; Homo sapiens) [µM] | IC50 ([3]; Homo sapiens, Fibroblast) [µM] | IC50 [4, 5] | other results |
| --- | --- | --- | --- | --- | --- |
| O=C(Cc1ccc[n+]([O-])c1)N1CCC(C2c3ccc(Cl)cc3CCc3cccnc32)CC1 (stereo not drawn) [Example 233] | 10 | 18 | > 50 | 0.67 µM |  |
| COc1cnc2c(c1)CCc1cc(Cl)ccc1C2=C1CCN(C(=O)Cc2cccnc2)CC1 [Example 239, 4-(8-Chloro-3-methoxy-5,6-dihydro-11H-benzo[5,6]cyclohepta[1,2-b]pyridin-11-ylidene)-1-[(3-pyridinyl]acetyl]-piperidine] | 4.6 | 37 | > 50 | 1.75 µM |  |
| O=C(Cc1cccnc1)N1CCC(C2c3ccc(Cl)cc3C=Cc3cccnc32)CC1 (stereo not drawn) [Example 266] | 0.77 | 3.1 | 6.25 |  | IC50 ([4]; FPT IC50, Ras-CVLS farnesylation, partially purified rat brain FPT): 0.46 µM; IC50 ([1]; listed as 266 (5.138)): 0.89 µM |
| O=C(Cc1ccncc1)N1CCC(C2c3ccc(Cl)cc3C=Cc3cccnc32)CC1 (stereo not drawn) [Example 269] | 0.69 | 6.25 | 12.5 |  |  |
| O=C(Cc1cccnc1)N1CCC(=C2c3ccc(Cl)cc3C=Cc3cccnc32)CC1 [Example 276] | 2.9 | 12.5 | 50 | 1.77 µM |  |
| O=C1Cc2cc(Cl)ccc2C(=C2CCN(C(=O)Cc3ccncc3)CC2)c2ncccc21 [Example 281] | 7 | 4 | > 50 | 2.9 µM |  |
| O=C1Cc2cccnc2C(=C2CCN(C(=O)Cc3cccnc3)CC2)c2ccc(Cl)cc21 [Example 283] | 5.6 | 10 | > 50 | 0.48 µM and 0.55 µM |  |
| O=C1Cc2cccnc2C(=C2CCN(C(=O)Cc3ccncc3)CC2)c2ccc(Cl)cc21 [Example 285] | 5.2 | 12.5 | > 50 | 0.76 µM | IC50 ([1]; listed as 285 (5.153)): 10.1 µM |
| O=C(Cc1ccncc1)N1CCC(=C2c3ccc(Cl)cc3C(O)Cc3cccnc32)CC1 (stereo not drawn) [Example 286] | 8.3 | 25 | > 50 | 1.5 µM |  |
| O=C(Nc1ccccn1)N1CCC(=C2c3ccc(Cl)cc3CCc3cccnc32)CC1 [Example 294] | 5.2 | 18 | > 50 | 2.11 µM | IC50 [1]: 2.8 µM |
| CC(C)(C(=O)N1CCC(=C2c3ccc(Cl)cc3CCc3cccnc32)CC1)c1cccnc1 [Example 300] | 2.6 | < 3.1 | > 50 | 0.96 µM |  |
| O=C(Cc1cccnc1)N1CC=C(C2c3ccc(Cl)cc3CCc3cccnc32)CC1 (stereo not drawn) [Example 410-D] | 18.5 | 10 | > 50 |  |  |
| CN1CCC(CC(=O)N2CCN(C3c4ccc(Cl)cc4CCc4cc(Br)cnc43)CC2)CC1 (stereo not drawn) [Example 425-O] |  |  | 6.25 |  | IC50 [4, 6]: 0.17 µM and 0.14 µM and 0.122 µM and 0.118 µM and 0.178 µM; Toxicity in COS cells at the concentration in parentheses ([1]; (10) μM): tox (10) |
| O=C(Cc1ccncc1)N1CCN(C2c3ccc(Cl)cc3CCc3cc(Br)cnc32)CC1 (stereo not drawn) [Example 426] | 0.38 |  | 25 |  | IC50 [4, 6]: 0.012 µM; IC50 [3]: > 12.5 µM |
| Cc1ccc2c(c1)CCc1cccnc1C2=C1CCN(C(=O)Cc2ccncc2)CC1 [Example 434] | < 5 |  |  |  | FPT inhibition at the concentration in parentheses ([4]; (0.48) μM): 70 (0.48); IC50 [4, 6]: 0.26 µM |
